One series has as its system T. foetus. Briefly: In vitro antiprotozoal activity against T. foetus. The series is classed as cell-based. The conditions noted are these: Tritrichomonas foetus, read-out: Activity IC50 T. foetus. From the text: (§1) Several 5-nitroimidazoles have been tested for in vitro antiprotozoal activity against T. foetus, T. vaginalis, and G. lamblia.
The test system of the next series is G. lamblia. As to the kind of experiment: In vitro antiprotozoal activity against G. lamblia. The conditions noted are these: Giardia duodenalis, read-out: Activity IC50 G. lamblia. The series is classed as cell-based.
Excerpt: as §1

Another series relates to T. vaginalis. As to the kind of experiment: In vitro antiprotozoal activity against T. vaginalis. It is filed as cell-based. The conditions noted are these: Trichomonas vaginalis, read-out: Activity IC50 T. vaginalis.
Excerpt: as §1

A further series deals with Mammalian rat hepatocyte. Briefly: DNA single strand breaks in mammalian rat hepatocytes (genotoxicity). The conditions noted are these: % relative to parent compound not containing 4-substituent.
Excerpt: as §1
^b Mammalian rat hepatocyte single strand DNA breaks expressed as %
relative to parent compound not containing 4substituent.

For series [1] the following is noted: background; cited from earlier work.
In the next series the test system is protozoa and bacteria. The conditions noted are these: U.S. Pat. No. 3,646,027; cited from earlier work.
The conditions of series [2]: background; cited from earlier work. The source holds these as a separate data set.

These results are taken from patent US4678799A, “1,2(1,4)-dimethyl-4(2)-(2-hydroxyethyl)-5-nitro-imidazole antiprotozoal agents with reduced mutagenicity” (Merck & Co., Inc., priority 1984, dated 1987).

≈ marks a conversion by molar mass, not a printed value. Read-outs that look alike come from different tables or passages of the source.

As a reminder, the IC50 is the concentration needed to halve the response being measured. On to `Cc1nc(CCO)c([N+](=O)[O-])n1C` [Compound V], for which the IC50 is 5.25 µg/mL (≈ 28.4 µM) in the series with T. foetus (in vitro, T. foetus); 25 µg/mL (≈ 135 µM) with G. lamblia (in vitro, G. lamblia); 9 µg/mL (≈ 48.6 µM) in the series on T. vaginalis (in vitro, T. vaginalis).
As to `Cc1nc(COC(N)=O)n(C)c1[N+](=O)[O-]` [III, (1,4-Dimethyl-5-nitroimidazol-2-yl)methylcarbamate], the “Extent of DNA Damage” value in the series with Mammalian rat hepatocyte is on record as 6%. For the same molecule, the IC50 turned out to be 1 µg/mL (≈ 4.67 µM) in the series on T. foetus (in vitro, T. foetus); 25 µg/mL (≈ 117 µM) in the series with G. lamblia (in vitro, G. lamblia); 1.9 µg/mL (≈ 8.87 µM) with T. vaginalis (in vitro, T. vaginalis).
Regarding `Cc1ncc([N+](=O)[O-])n1CCO` [II], the “Extent of DNA Damage” value in the series on Mammalian rat hepatocyte is reported as 100%. In addition, the IC50 turned out to be 0.43 µg/mL (≈ 2.51 µM) in the series on T. foetus (in vitro, T. foetus); 2 µg/mL (≈ 11.7 µM) in the series with G. lamblia (in vitro, G. lamblia); 0.58 µg/mL (≈ 3.39 µM) in the series on T. vaginalis (in vitro, T. vaginalis).
As to `Cc1nc(CCO)n(C)c1[N+](=O)[O-]` [IV, 1,4-Dimethyl-2-(2-hydroxyethyl)-5-nitroimidazole], the IC50 with T. foetus (in vitro, T. foetus) came to 1.9 µg/mL (≈ 10.3 µM); in the series on G. lamblia (in vitro, G. lamblia), 25 µg/mL (≈ 135 µM); in the series on T. vaginalis (in vitro, T. vaginalis) it was 12.5 µg/mL (≈ 67.5 µM).
As for `Cn1c([N+](=O)[O-])cnc1COC(N)=O` [I], the “Extent of DNA Damage” value with Mammalian rat hepatocyte turned out to be 100%. Moreover, the concentration for half-maximal inhibition (IC50) was 0.42 µg/mL (≈ 2.1 µM) with T. foetus, 0.9 µg/mL (≈ 4.5 µM) with G. lamblia and 0.54 µg/mL (≈ 2.7 µM) in the series with T. vaginalis. In series [1], the “drug residual levels” value is listed as “high drug residual levels”. The “activity against protozoa and bacteria” value in the series on protozoa and bacteria is given as “potent”. The “mutagenicity” value in series [2] is “strong mutagenicity”.
